Laboratory results as given in patent publication US10287255B2, “Compounds as histone deacetylase 6 inhibitors and pharmaceutical compositions comprising the same” (CHONG KUN DANG PHARMACEUTICAL CORP., priority 2014, dated 2019).

Experiments:
[1] = target: T1, human recombinant HDAC1 (Homo sapiens, UniProt Q13547); experiment: HDAC1 enzyme activity inhibition assay (in vitro, fluorimetric); format: biochemical; conditions: human recombinant HDAC1, fluorimetric kit, 30° C. 60 minutes
T1 construct: purchased Enzo Life Science BML-SE456
T1 sequence (Q13547 whole entry): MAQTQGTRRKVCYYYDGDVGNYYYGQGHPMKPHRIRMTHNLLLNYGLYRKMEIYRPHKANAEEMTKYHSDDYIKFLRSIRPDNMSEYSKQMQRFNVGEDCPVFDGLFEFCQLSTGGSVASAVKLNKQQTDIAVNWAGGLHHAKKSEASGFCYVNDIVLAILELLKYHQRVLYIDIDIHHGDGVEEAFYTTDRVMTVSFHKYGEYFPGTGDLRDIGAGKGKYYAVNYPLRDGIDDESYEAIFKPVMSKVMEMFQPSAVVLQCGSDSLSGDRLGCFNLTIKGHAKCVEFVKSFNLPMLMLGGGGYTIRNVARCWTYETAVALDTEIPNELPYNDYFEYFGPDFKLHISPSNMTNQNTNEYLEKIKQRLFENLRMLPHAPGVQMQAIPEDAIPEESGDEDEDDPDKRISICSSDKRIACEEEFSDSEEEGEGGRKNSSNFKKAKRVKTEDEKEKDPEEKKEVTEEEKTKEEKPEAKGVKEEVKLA
Method in brief: (§1)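 IC50 values derive from fluorescence (Ex 360, Em 460) after developer treatment (30 min) of reactions of recombinant human HDAC1 or HDAC6 with 10 μM Fluor de Lys-SIRT1 substrate (60 min, 30 °C). Compounds were serially diluted 5-fold; 0.3 μg enzyme was used for HDAC1, with HDAC6 tested identically.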

[2] = target: T2, human recombinant HDAC6 (Homo sapiens, UniProt Q9UBN7); experiment: HDAC6 enzyme activity inhibition assay (in vitro, fluorimetric); format: biochemical; conditions: for HDAC6 selectivity (fold): HDAC6 selectivity over HDAC1; for IC50: human recombinant HDAC6, fluorimetric kit, same protocol as HDAC1
T2 construct: purchased Calbiochem 382180
T2 sequence (Q9UBN7 1-1215): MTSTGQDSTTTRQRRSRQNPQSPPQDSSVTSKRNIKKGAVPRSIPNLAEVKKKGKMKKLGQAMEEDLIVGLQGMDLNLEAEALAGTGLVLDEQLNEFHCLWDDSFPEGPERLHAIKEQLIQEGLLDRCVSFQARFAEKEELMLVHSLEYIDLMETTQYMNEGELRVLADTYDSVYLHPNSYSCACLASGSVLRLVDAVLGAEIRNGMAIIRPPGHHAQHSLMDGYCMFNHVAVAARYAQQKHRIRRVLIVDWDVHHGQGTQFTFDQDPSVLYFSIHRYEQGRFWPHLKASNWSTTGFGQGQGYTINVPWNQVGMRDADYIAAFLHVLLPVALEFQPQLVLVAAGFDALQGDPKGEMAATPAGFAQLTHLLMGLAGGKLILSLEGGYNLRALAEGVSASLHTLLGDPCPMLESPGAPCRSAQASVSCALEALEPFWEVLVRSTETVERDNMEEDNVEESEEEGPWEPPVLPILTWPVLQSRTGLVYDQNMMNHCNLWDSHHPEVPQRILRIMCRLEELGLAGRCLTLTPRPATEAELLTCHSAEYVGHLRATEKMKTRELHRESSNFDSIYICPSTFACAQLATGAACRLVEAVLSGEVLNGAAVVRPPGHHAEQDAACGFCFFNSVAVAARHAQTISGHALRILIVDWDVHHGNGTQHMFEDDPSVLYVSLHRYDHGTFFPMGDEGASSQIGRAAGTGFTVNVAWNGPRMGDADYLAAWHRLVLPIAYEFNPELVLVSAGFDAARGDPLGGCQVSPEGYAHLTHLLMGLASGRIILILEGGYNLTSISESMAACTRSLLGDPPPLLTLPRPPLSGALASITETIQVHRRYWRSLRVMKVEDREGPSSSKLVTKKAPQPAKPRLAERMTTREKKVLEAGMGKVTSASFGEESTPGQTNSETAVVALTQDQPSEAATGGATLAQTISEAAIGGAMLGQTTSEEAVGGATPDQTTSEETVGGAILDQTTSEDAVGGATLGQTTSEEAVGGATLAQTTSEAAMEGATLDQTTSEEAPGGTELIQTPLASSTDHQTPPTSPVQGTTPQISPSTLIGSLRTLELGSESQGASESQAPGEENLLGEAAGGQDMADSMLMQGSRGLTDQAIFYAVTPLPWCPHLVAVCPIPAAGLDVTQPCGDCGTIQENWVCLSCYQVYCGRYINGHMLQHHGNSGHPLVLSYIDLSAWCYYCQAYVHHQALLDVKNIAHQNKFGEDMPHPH
Method in brief: as §1

SMILES | IC50 [1] [µM] | HDAC6 selectivity (fold) [2] [fold] | IC50 [2] [nM]
C[C@@H]1CN(C(=O)Cc2cccc(Cl)c2)C[C@H](C)N1Cc1ccc(C(=O)NO)cc1 [Compound 233, 4-(((2S,6R)-4-(2-(3-chlorophenyl)acetyl)-2,6-dimethylpiperazin-1-yl)methyl)-N-hydroxybenzamide] | 16.9 | 11 | 1480
CC(CN(C)Cc1ccccc1)NCc1cccc(C(=O)N2[C@H](C)CN(Cc3ccc(C(=O)NO)cc3)C[C@@H]2C)c1 (stereo partly drawn) [Compound 441, 4-(((3R,5S)-4-(3-(((1-(benzyl(methyl)amino)propan-2-yl)amino)methyl)benzoyl)-3,5-dimethylpiperazin-1-yl)methyl)-N-hydroxybenzamide] | 5.4 | 154 | 35
C[C@@H]1CN(Cc2ccc(C(=O)NO)cc2)C[C@H](C)N1Cc1cccc(C(=O)N2CCOCC2)c1 [Compound 446, 4-(((3R,5S)-3,5-dimethyl-4-(3-(morpholine-4-carbonyl)benzyl)piperazin-1-yl)methyl)-N-hydroxybenzamide] | 3.8 | 33 | 114
C[C@@H]1CN(Cc2ccc(/C=C/C(=O)NO)cc2)C[C@H](C)N1C(=O)Cc1ccccc1 [Compound 323, (E)-3-(4-(((3R,5S)-3,5-dimethyl-4-(2-phenylacetyl)piperazin-1-yl)methyl)phenyl)-N-hydroxyacrylamide] | > 10 | >11 | 921
C[C@@H]1CN(Cc2ccc(C(=O)NO)cc2)C[C@H](C)N1Cc1ccncc1 [Compound 266, 4-(((3R,5S)-3,5-dimethyl-4-(pyridin-4-ylmethyl)piperazin-1-yl)methyl)-N-hydroxybenzamide] | 19.1 | 68 | 282
C[C@@H]1CN(C(=O)c2cccc(Cl)c2)C[C@H](C)N1Cc1ccc(C(=O)NO)cc1 [Compound 107, 4-(((2S,6R)-4-(3-chlorobenzoyl)-2,6-dimethylpiperazin-1-yl)methyl)-N-hydroxybenzamide] | 8.3 | 81 | 103
C[C@@H]1CN(Cc2ccc(-c3ccco3)cc2)C[C@H](C)N1Cc1ccc(/C=C/C(=O)NO)cc1 [Compound 477, (E)-3-(4-(((2S,6R)-4-(4-(furan-2-yl)benzyl)-2,6-dimethylpiperazin-1-yl)methyl)phenyl)-N-hydroxyacrylamide] | 2.7 | 11 | 253
C[C@@H]1CN(Cc2ccc(C(=O)NO)cc2)C[C@H](C)N1C(=O)c1cccc(CN2CCN(S(C)(=O)=O)CC2)c1 [Compound 444, 4-(((3R,5S)-3,5-dimethyl-4-(3-((4-(methylsulfonyl)piperazin-1-yl)methyl)benzoyl)piperazin-1-yl)methyl)-N-hydroxybenzamide] | 8.5 | 146 | 58
C[C@@H]1CN(Cc2ccccc2-c2ccncc2)C[C@H](C)N1Cc1ccc(C(=O)NO)cc1 [Compound 350, 4-(((2S,6R)-2,6-dimethyl-4-(2-(pyridin-4-yl)benzyl)piperazin-1-yl)methyl)-N-hydroxybenzamide] | 3.3 | 17 | 194
C[C@@H]1CN(Cc2ccc(C(=O)NO)cc2)C[C@H](C)N1Cc1ccc(-c2ccoc2)cc1 [Compound 309, 4-(((3R,5S)-4-(4-(furan-3-yl)benzyl)-3,5-dimethylpiperazin-1-yl)methyl)-N-hydroxybenzamide] | 1.6 | 21 | 73
C[C@@H]1CN(Cc2ccc(C(=O)NO)cc2)C[C@H](C)N1C(=O)c1ccc(Cl)cc1 [Compound 122, 4-(((3R,5S)-4-(4-chlorobenzoyl)-3,5-dimethylpiperazin-1-yl)methyl)-N-hydroxybenzamide] | 3.6 | 717 | 5
C[C@@H]1CN(Cc2ccc(C(=O)NO)cc2)C[C@H](C)N1C(=O)Nc1cccc(Cl)c1 [Compound 099, (2S,6R)-N-(3-chlorophenyl)-4-(4-(hydroxycarbamoyl)benzyl)-2,6-dimethylpiperazine-1-carboxamide] | 12.4 | 51 | 242
C[C@@H]1CN(c2ccc(F)cc2)C[C@H](C)N1Cc1ccc(C(=O)NO)cc1 [Compound 119, 4-(((2S,6R)-4-(4-fluorophenyl)-2,6-dimethylpiperazin-1-yl)methyl)-N-hydroxybenzamide] | 8.2 | 26 | 309
C[C@@H]1CN(Cc2ccc(C(=O)NO)cc2)C[C@H](C)N1C(=O)c1cccs1 [Compound 126, 4-(((3R,5S)-3,5-dimethyl-4-(thiophene-2-carbonyl)piperazin-1-yl)methyl)-N-hydroxybenzamide] | 6.1 | 1525 | 4
C[C@@H]1CN(Cc2ccc(C(=O)NO)cc2)C[C@H](C)N1C(=O)c1ccc(CN2CCCC2)cc1 [Compound 461, 4-(((3R,5S)-3,5-dimethyl-4-(4-(pyrrolidin-1-ylmethyl)benzoyl)piperazin-1-yl)methyl)-N-hydroxybenzamide] | 4.2 | 18 | 238
C[C@@H]1CN(CCc2ccccc2)C[C@H](C)N1Cc1ccc(C(=O)NO)cc1 [Compound 183, 4-(((2S,6R)-2,6-dimethyl-4-phenethylpiperazin-1-yl)methyl)-N-hydroxybenzamide] | > 10 | >20 | 500
C[C@@H]1CN(Cc2ccc3ccccc3c2)C[C@H](C)N1Cc1ccc(C(=O)NO)cc1 [Compound 268, 4-(((2S,6R)-2,6-dimethyl-4-(naphthalen-2-ylmethyl)piperazin-1-yl)methyl)-N-hydroxybenzamide] | 2.8 | 2 | 1270
C[C@@H]1CN(Cc2ccccc2C2=CCOCC2)C[C@H](C)N1Cc1ccc(C(=O)NO)cc1 [Compound 351, 4-(((2S,6R)-4-(2-(3,6-dihydro-2H-pyran-4-yl)benzyl)-2,6-dimethylpiperazin-1-yl)methyl)-N-hydroxybenzamide] | 5.1 | 15 | 351
CCN1[C@H](C)CN(Cc2ccc(C(=O)NO)cc2)C[C@@H]1C [Compound 147, 4-(((3R,5S)-4-ethyl-3,5-dimethylpiperazin-1-yl)methyl)-N-hydroxybenzamide] | > 10 | >90 | 111
C[C@@H]1CN(Cc2ccc(C(=O)NO)cc2)C[C@H](C)N1C(=O)NCc1ccccc1 [Compound 161, (2S,6R)-N-benzyl-4-(4-(hydroxycarbamoyl)benzyl)-2,6-dimethylpiperazine-1-carboxamide] | 2.9 | 182 | 16
